Assay results published in US20250313548A1 (Actio Biosciences, Inc., priority 2023, published 2025).

molecular target: human, KCNT1 (Homo sapiens (Human), UniProt Q5JUK3); experiment: FLIPR Tl/K Flux Assay; type: cell-based; conditions: HEK293 cells stably expressing human KCNT1; Tl+ flux stimulated with EC80 of agonist Loxapine
How it was run: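 Inhibition values come from a Hill-equation fit of % inhibition versus log concentration, using normalized fluorescence (Fmax/Fmin) over a 160 s read. The read followed stimulation with Tl+ plus EC80 agonist loxapine after 30 min compound pre-incubation at 25 °C. Cells were KCNT1-expressing HEK293, dye-loaded 1 h in pH 7.4 HEPES/HBSS with 5 mM probenecid.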

Sequence of human, KCNT1 (Q5JUK3 whole entry): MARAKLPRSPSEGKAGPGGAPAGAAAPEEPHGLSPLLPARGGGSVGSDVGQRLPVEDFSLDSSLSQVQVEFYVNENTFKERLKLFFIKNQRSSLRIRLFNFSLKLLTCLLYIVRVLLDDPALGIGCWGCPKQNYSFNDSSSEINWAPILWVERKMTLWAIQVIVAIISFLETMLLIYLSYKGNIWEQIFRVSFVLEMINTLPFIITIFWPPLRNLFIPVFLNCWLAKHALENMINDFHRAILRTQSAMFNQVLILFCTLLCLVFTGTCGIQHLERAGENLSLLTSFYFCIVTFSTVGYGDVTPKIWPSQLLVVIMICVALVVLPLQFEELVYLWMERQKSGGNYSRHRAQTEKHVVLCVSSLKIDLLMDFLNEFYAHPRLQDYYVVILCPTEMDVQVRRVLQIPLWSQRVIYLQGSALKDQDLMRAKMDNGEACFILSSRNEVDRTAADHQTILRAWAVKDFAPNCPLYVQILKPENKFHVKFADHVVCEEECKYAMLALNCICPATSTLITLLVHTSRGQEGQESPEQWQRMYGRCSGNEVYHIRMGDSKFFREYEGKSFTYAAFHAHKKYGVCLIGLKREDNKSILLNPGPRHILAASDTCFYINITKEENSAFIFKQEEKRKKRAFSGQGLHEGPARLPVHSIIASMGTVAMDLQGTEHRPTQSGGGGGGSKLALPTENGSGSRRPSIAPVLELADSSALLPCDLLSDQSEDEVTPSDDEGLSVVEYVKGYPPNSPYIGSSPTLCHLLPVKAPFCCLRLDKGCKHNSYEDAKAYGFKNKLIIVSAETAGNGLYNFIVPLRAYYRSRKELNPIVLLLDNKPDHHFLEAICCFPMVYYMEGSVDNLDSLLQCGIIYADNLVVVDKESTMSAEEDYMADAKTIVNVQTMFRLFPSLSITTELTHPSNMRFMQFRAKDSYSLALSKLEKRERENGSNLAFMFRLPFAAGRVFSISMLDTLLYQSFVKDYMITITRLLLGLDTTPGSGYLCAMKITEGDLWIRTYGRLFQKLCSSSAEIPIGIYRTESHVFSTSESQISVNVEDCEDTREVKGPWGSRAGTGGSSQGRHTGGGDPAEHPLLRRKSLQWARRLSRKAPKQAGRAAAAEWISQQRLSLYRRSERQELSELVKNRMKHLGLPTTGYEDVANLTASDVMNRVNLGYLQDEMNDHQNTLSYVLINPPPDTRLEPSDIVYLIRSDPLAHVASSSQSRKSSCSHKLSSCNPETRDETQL

Molecule	IC50
O=C(NC1CCCc2nn(-c3ccnc(C(F)(F)F)c3)cc21)c1ccc(C(F)(F)F)nc1 (racemic) [Compound I-19, (rac)-6-(Trifluoromethyl)-N-(2-(2-(trifluoromethyl)pyridin-4-yl)-4,5,6,7-tetrahydro-2H-indazol-4-yl)nicotinamide]	0.25 to 0.5 µM
O=C(N[C@H]1CCCn2nc(-c3ccnc(C(F)(F)F)c3)nc21)c1cc(F)cc(F)c1 [Compound I-234a, (S)-3,5-Difluoro-N-(2-(2-(trifluoromethyl)pyridin-4-yl)-5,6,7,8-tetrahydro-[1,2,4]triazolo[1,5-a]pyridin-8-yl)benzamide]	< 0.25 µM
CCOc1cc(-n2cc3c(n2)CCCC3NC(=O)c2cc(C)cc(C(F)(F)F)c2)ccn1 (racemic) [Compound I-15, (rac)-N-(2-(2-Ethoxypyridin-4-yl)-4,5,6,7-tetrahydro-2H-indazol-4-yl)-3-methyl-5-(trifluoromethyl)benzamide]	< 0.25 µM
O=C(N[C@H]1CCn2nc(-c3ccnc(C4CC4)c3)cc21)c1ccc(C(F)(F)F)nc1 [Compound I-66a]	< 0.25 µM
O=C(N[C@H]1CCCc2oc(-c3ccnc(C(F)(F)F)c3)nc21)c1cc2cccnn2c1 [Compound I-296a, (S)-N-(2-(2-(Trifluoromethyl)pyridin-4-yl)-4,5,6,7-tetrahydrobenzo[d]oxazol-4-yl)pyrrolo[1,2-b]pyridazine-6-carboxamide]	< 0.25 µM
(S)-6-(Trifluoromethyl)-N-(2-(2-(trifluoromethyl)pyridin-4-yl)-5,6-dihydro-4H-pyrrolo[1,2-b]pyrazol-4-yl)pyrazine-2-carboxamide [Compound I-572a]	< 0.25 µM
COc1cc(C#N)cc(C(=O)N[C@H]2CCn3nc(-c4ccnc(C(F)(F)F)c4)cc32)c1 [Compound I-258a, (S)-3-Cyano-5-methoxy-N-(2-(2-(trifluoromethyl)pyridin-4-yl)-5,6-dihydro-4H-pyrrolo[1,2-b]pyrazol-4-yl)benzamide]	< 0.25 µM
CCn1nc(C(F)(F)F)cc1C(=O)NC1CCCc2nn(-c3ccnc(C(F)(F)F)c3)cc21 (racemic) [Compound I-7, (rac)-1-Ethyl-3-(trifluoromethyl)-N-(2-(2-(trifluoromethyl)pyridin-4-yl)-4,5,6,7-tetrahydro-2H-indazol-4-yl)-1H-pyrazole-5-carboxamide]	< 0.25 µM

Continued, values first:

IC50	Molecule
< 0.25 µM	Cn1nc(C(C)(F)F)cc1C(=O)N[C@H]1CCCn2nc(-c3ccnc(C(F)(F)F)c3)cc21 [Compound I-363a]
< 0.25 µM	Cn1nc(C(F)(F)F)nc1C(=O)N[C@H]1CCn2nc(-c3cc(C(F)(F)F)ncc3F)cc21 [Compound I-548a, (S)—N-(2-(5-Fluoro-2-(trifluoromethyl)pyridin-4-yl)-5,6-dihydro-4H-pyrrolo[1,2-b]pyrazol-4-yl)-1-methyl-3-(trifluoromethyl)-1H-1,2,4-triazole-5-carboxamide]
< 0.25 µM	N#Cc1cc(F)cc(C(=O)N[C@H]2CCCCn3nc(-c4ccnc(C(F)(F)F)c4)cc32)c1 [Compound I-319a, (S)-3-Cyano-5-fluoro-N-(2-(2-(trifluoromethyl)pyridin-4-yl)-5,6,7,8-tetrahydro-4H-pyrazolo[1,5-a]azepin-4-yl)benzamide]
> 1 µM	COc1cc(-n2cc3c(n2)CCCC[C@H]3NC(=O)c2cccc(C)c2)ccn1 [Compound I-376b]
< 0.25 µM	CCOc1cc(-n2cc3c(n2)CC[C@@H]3NC(=O)c2cc(F)cc(F)c2)ccn1 [Compound I-337a, (S)-N-(2-(2-Ethoxypyridin-4-yl)-2,4,5,6-tetrahydrocyclopenta[c]pyrazol-4-yl)-3,5-difluorobenzamide]
< 0.25 µM	COc1cc(-c2cc3n(n2)CCC[C@@H]3NC(=O)c2cc(C(F)(F)F)nn2C)cc(C)n1 [Compound I-431a]
< 0.25 µM	O=C(N[C@H]1CCCn2nc(-c3ccnc(C(F)(F)F)c3)cc21)c1ccn(C(F)(F)F)n1 [Compound I-382a]
